In this test the target is T1, rat EP2 receptor (Rattus norvegicus, UniProt Q62928).
T1 construct: expressed in transfected cells
In words: Rat EP2 receptor agonistic/antagonistic action (cAMP assay, CHO-K1 stable expression cells). It is filed as cell-based. Particulars: cAMP increasing action, 1 μM PGE2 taken as 100%, NE means that the action has no significance. Here is the method:
For a rat EP2 receptor, stable expression cells were used to carry out a cAMP assay. The agonistic activity was evaluated by the cAMP increasing action by the test compound, and the antagonistic activity was evaluated by the inhibiting action of the test compound on the cAMP increasing action by PGE2.
The rat EP2 receptor cDNA was subcloned into an expression vector (pcDNA3.1-V5-His-topo, manufactured by Invitrogen Corporation). This expression vector was introduced into CHO-K1 cells (American Type Culture Collection) to prepare a rat EP2 receptor stable expression cell line. These cells were seeded onto a 96-well microplate at 0.5×10^4 cell/well, and used for the experiment the next day. The culture medium of each well was removed by suction, 100 μL/well of an assay culture medium (α-MEM containing 2 μM indomethacin and 0.1% bovine serum albumin) was added thereto, and incubated at 37° C. for 1 hour. The culture medium was removed again by suction, and replaced with 100 μL/well of an assay culture medium containing a test compound and 1 mM IBMX. […] Using a cAMP femto 2 kit (manufactured by Cis Bio International), the cAMP concentration in the cell lysate was measured. In this connection, the cAMP increasing action (%) was calculated with the cAMP increasing action by 1 μM PGE2 was taken as 100%.

The source of these data is patent publication US20110082133A1, “PYRIDONE COMPOUNDS” (priority 2008, published 2011).

Structures can show the parent of a compound that is named as a salt.

T1 sequence (Q62928 whole entry): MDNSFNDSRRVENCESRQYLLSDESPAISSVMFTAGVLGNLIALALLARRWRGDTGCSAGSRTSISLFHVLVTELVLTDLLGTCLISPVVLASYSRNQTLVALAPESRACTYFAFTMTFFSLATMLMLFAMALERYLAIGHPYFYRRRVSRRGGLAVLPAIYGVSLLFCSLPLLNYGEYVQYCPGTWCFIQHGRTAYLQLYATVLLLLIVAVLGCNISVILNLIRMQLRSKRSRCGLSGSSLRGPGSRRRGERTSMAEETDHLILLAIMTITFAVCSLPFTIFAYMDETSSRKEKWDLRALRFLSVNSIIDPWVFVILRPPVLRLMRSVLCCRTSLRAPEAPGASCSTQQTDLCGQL

For the compound `CN(Cc1c(Cl)cc(Cl)c(=O)n1CCc1ccc(C(=O)O)cc1)c1cccc(Cl)c1` [Example 160], the “Rat EP2 Agonistic Action 10 μM” value came out at 19%.
With `CCC[C@H]1CCCN1Cc1c(Cl)cc(Cl)c(=O)n1CCc1ccc(C(=O)O)cc1` [Example 17, 4-{2-[3,5-dichloro-2-oxo-6-{[(2S)-2-propylpyrrolidin-1-yl]methyl}pyridin-1(2H)-yl]ethyl}benzoic acid trifluoroacetate], the “Rat EP2 Agonistic Action 10 μM” value is on record as 14%.
